For one data set, the system named is S. aureus. Particulars: Glycerol Esters of Fatty Acids; cited from earlier work.
The test system of data set [1] is Staphylococcus aureus MRSA, ATCC 33591. Nature of the data set: in vitro Minimum Inhibitory Concentration (MIC), growth/no growth in dilution tubes. In kind it is cell-based. Particulars: for Concentration of the component at which bactericidal activity is still maintained in the three-component combination: dodecanol, glycerol monolaurate and benzoic acid combined; for MIC of Glycerol monolaurate in two-component combination: combined with 40 μg/mL Dodecanol. The procedure:
(§1) Now reported are in vitro Minimum Inhibitory Concentrations (MIC) for dodecanol against Staphylococcus aureus MRSA, ATCC 33591, Staphylococcus aureus VISA (Vancomycin intermediate sensitivity) ATCC 700699, and Enterococcus faecalis ATCC 51299 (formerly Streptococcus faecalis VREF (vancomycin resistant)). One tenth of a cc of dodecanol was diluted with 50 cc of polyethylene glycol 400 and 449.9 cc of sterilized deionized water, followed by five doubling dilutions. […] When combined with the other components of the formulation, a synergistic effect is seen such that bactericidal activity is still maintained even when the concentration of dodecanol is reduced to 20 μg/mL.
(§2) Now reported are in vitro Minimum Inhibitory Concentrations (MIC) for glycerol monolaurate against Staphylococcus aureus MRSA, ATCC 33591, Staphylococcus aureus VISA (Vancomycin intermediate sensitivity) ATCC 700699 and Vancomycin resistant Enterococcus faecalis ATCC 51299 (formerly Streptococcus faecalis VRSF). […] When combined with the other components of the formulation a synergistic effect is seen such that bactericidal activity is still maintained even when the concentration of glycerol monolaurate is reduced to 15 μg/mL.
The Minimum Inhibitory Concentration (MIC) for benzoic acid was determined against Staphylococcus aureus MRSA.
The MIC for dodecanol was experimentally determined to be about 83 micrograms/mL, the MIC for glycerol monolaurate was experimentally determined to be about 62.5 micrograms/mL, and the MIC for benzoic acid was experimentally determined to be about 1250 micrograms/mL. […] When a third component, the organic acid benzoic acid, was added to the formulation, the MICs for all three were much lower.

The subject of the next data set is Staphylococcus. Particulars: cited from earlier work.
The test system of data set [2] is Staphylococcus aureus VISA (Vancomycin intermediate sensitivity) ATCC 700699. Put plainly: in vitro Minimum Inhibitory Concentration (MIC), growth/no growth in dilution tubes. It counts as cell-based. Particulars: for MIC: Staphylococcus aureus, read-out: MIC (Minimum Inhibitory Concentration). As to the method: as §1, §2
Data set [3] deals with Vancomycin resistant Enterococcus faecalis ATCC 51299. Described as above. In kind it is cell-based. The procedure: as §1, §2
Data set [4] has as its system Staphylococcus aureus MRSA, ATCC 33591. Nature of the data set: In vitro time-kill, one minute contact. In kind it is cell-based. Particulars: for CFU Recovered: Initial Count 5.6 × 10^6. As to the method:
(§3) Dodecanol and glycerol monolaurate were diluted to 2,000 micrograms/mL and then diluted to the following concentrations: Dodecanol: 100 micrograms/mL and glycerol monolaurate: 250 micrograms/mL. Each challenge organism was confirmed by Gram stain and colony morphology. […] Log reductions and percent reductions presented in Tables VII and VIII below were calculated using the following equations: […]
The nasal formulation of the invention was tested against S. aureus MRSA, ATCC 33591. The contact time for the formulation with the bacteria was one minute, after which time, an 8.3 log reduction in bacterial count was observed.
The hand and body wash formulation of the invention was tested against S. aureus MRSA, ATCC 33591 and MDR Klebsiella pneumoniae ATCC CI-2004.

Data set [5] concerns Enterococcus faecalis ATCC 51299. Put plainly: In vitro time-kill, one minute contact. It counts as cell-based. Particulars: for CFU Recovered: Initial Count 5.6 × 10^6. As to the method: as §3
Data set [6] deals with Staphylococcus aureus VISA, ATCC 700699. Nature of the data set: In vitro time-kill, one minute contact. It counts as cell-based. Particulars: for CFU Recovered: Initial Count 5.6 × 10^6. As to the method:
as §3

Data set [7] is described as follows: Irritation of mucous membranes. Particulars: low concentrations (83 micrograms/mL).
The subject of another data set is MRSA. Put plainly: Topical treatment of MRSA lesions in patients (case examples). It counts as in vivo, human. Particulars: treatment before the formulation ointment; single patients. From the text:
EXAMPLES OF SUCCESSFUL TREATMENT OF MRSA LESIONS USING THE NOVEL FORMULATIONS OF THE INVENTION ARE PROVIDED BELOW

[8] abbreviates: Glycerol Monolaurate at 250 μg/mL.

“Also recorded” adds a separate entry of the source. Where two headings read alike, the source gives them in different places. Where only a bound is given, the exact number is not on record here.
Throughout, for Growth or No Growth: key: Growth (+); No Growth (0).

For `CCCCCCCCCCCCC(=O)OCC(O)CO` (centres unmarked) [13 Carbon Mono, Tridecanoyl monoglyceride], the “Minimum inhibitory concentration for Staphylococcus” value in the data set with S. aureus is on record as “No Inhibition”.
In the case of `O=C(O)c1ccccc1` [Benzoic Acid, benzoic acid], the “Growth or No Growth” value is “+” in data set [1] (Benzoic Acid 625 μg/mL, S. aureus MRSA, Average CFU/mL 8.9 × 10^6); 0 in [1] (Benzoic Acid 1,250 μg/mL, S. aureus MRSA, Average CFU/mL 8.9 × 10^6); 0 in data set [1] (Benzoic Acid 2,500 μg/mL, S. aureus MRSA, Average CFU/mL 8.9 × 10^6); 0 in [1] (Benzoic Acid 5,000 μg/mL, S. aureus MRSA, Average CFU/mL 8.9 × 10^6); 0 in data set [1] (Benzoic Acid 10,000 μg/mL, S. aureus MRSA, Average CFU/mL 8.9 × 10^6). For the same compound, the “MIC of Benzoic Acid in combination” value in [1] (Dodecanol (20 μ/mL) and Glycerol Monolaurate (15 μ/mL) held constant, MRSA) is less than 312.5 µg/mL. In addition, the MIC in data set [1] (S. aureus MRSA, Average CFU/mL 8.9 × 10^6, benzoic acid alone) was 1250 µg/mL; in data set [1] (Staphylococcus aureus, S. aureus MRSA, Average CFU/mL 8.9 × 10^6, benzoic acid alone), 1250 µg/mL. For the same compound, the “Concentration of the component at which bactericidal activity is still maintained in the three-component combination” value (from here on “Concentration of the component”) in data set [1] (MRSA) was 312.5 µg/mL.
For `CCCCCCCCO` [C-8], the “Effective Bactericidal Concentration of Primary Alcohols against Staphylococcus” value (shortened to “Effective Bactericidal Concentration”) in the data set on Staphylococcus is on record as 800 Micrograms/mL.
On to `CCCCCCCCCO` [C-9], for which, in the data set on Staphylococcus, the “Effective Bactericidal Concentration” value is recorded as 200 Micrograms/mL.
Turning to `CCCCCCCCCCO` [C-10], in the data set with Staphylococcus, the “Effective Bactericidal Concentration” value was 50 Micrograms/mL.
Turning to `CCCCCCCCCCCO` [C-11], in the data set with Staphylococcus, the “Effective Bactericidal Concentration” value is listed as 25 Micrograms/mL.
In the case of `CCCCCCCCCCCCCO` [C-13], the “Effective Bactericidal Concentration” value in the data set on Staphylococcus was more than 800 Micrograms/mL.
For `CCCCCCCCCCCCO` [Dodecanol, 1-dodecanol], the MIC in data set [1] (Staphylococcus aureus, S. aureus MRSA, dodecanol alone, read-out: MIC (Minimum Inhibitory Concentration)) was 83 µg/mL; in [2] (S. aureus VISA, dodecanol alone), 83 µg/mL; in [3] (Enterococcus faecalis, ATCC 51299 / VRE, E. faecalis VRE, dodecanol alone, read-out: MIC (Minimum Inhibitory Concentration)), 83 µg/mL. Further, the “MIC of Dodecanol in two-component combination” value in [1] (combined with 30 μg/mL Glycerol monolaurate, S. aureus MRSA) was determined as 40 μg/mL Dodecanol. For the same compound, the “Concentration of the component” value in data set [1] (MRSA) is 20 µg/mL. The “Growth or No Growth” value is recorded as “+” in [1] (final concentration 2.53125 μg/mL, S. aureus MRSA); “+” in data set [1] (final concentration 5.0625 μg/mL, S. aureus MRSA); “+” in data set [1] (final concentration 10.125 μg/mL, S. aureus MRSA); “+” in data set [1] (final concentration 20.25 μg/mL, S. aureus MRSA); “+” in [1] (final concentration 41.5 μg/mL, S. aureus MRSA); 0 in data set [1] (final concentration 83 μg/mL, S. aureus MRSA). Further, the “Growth or No Growth” value in data set [2] (final concentration 2.53125 μg/mL, S. aureus VISA) is listed as “+”; in data set [2] (final concentration 5.0625 μg/mL, S. aureus VISA), “+”; in data set [2] (final concentration 10.125 μg/mL, S. aureus VISA), “+”; in data set [2] (final concentration 20.25 μg/mL, S. aureus VISA) it was “+”; in [2] (final concentration 41.5 μg/mL, S. aureus VISA) it was “+”; in data set [2] (final concentration 83 μg/mL, S. aureus VISA) it was 0. In addition, the “Growth or No Growth” value is “+” in [3] (final concentration 2.53125 μg/mL, E. faecalis VRE); “+” in [3] (final concentration 5.0625 μg/mL, E. faecalis VRE); “+” in data set [3] (final concentration 10.125 μg/mL, E. faecalis VRE); “+” in [3] (final concentration 20.25 μg/mL, E. faecalis VRE); “+” in [3] (final concentration 41.5 μg/mL, E. faecalis VRE); 0 in data set [3] (final concentration 83 μg/mL, E. faecalis VRE). Further, the “% Reduction” value in data set [4] (Dodecanol at 100 μg/mL), in data set [5] (Dodecanol at 100 μg/mL) and in data set [6] (Dodecanol at 100 μg/mL) was 100% throughout. For the same compound, the “Log Reduction” value was found to be 6.75 in [4] (Dodecanol at 100 μg/mL), 7.04 in data set [5] (Dodecanol at 100 μg/mL) and 7.18 in data set [6] (Dodecanol at 100 μg/mL). Besides, the “CFU Recovered” value in [4] (Dodecanol at 100 μg/mL), in data set [5] (Dodecanol at 100 μg/mL) and in data set [6] (Dodecanol at 100 μg/mL) was <5 × 10^0 CFU per mL each time. The “Irritating effects on the mucous membranes” value in [7] was “no irritating effects”. Besides, the “Effective Bactericidal Concentration” value in the data set with Staphylococcus is 12.5 Micrograms/mL.
As to `CCCCCCCCCCCC(=O)OCC(O)CO` (centres unmarked) [Glycerol Monolaurate, glycerol monolaurate], the “MIC (Minimum Inhibitory Concentration)” value in [1] (S. aureus MRSA, glycerol monolaurate alone) came to 62.5 micrograms/mL; in [1] (S. aureus MRSA, glycerol monolaurate alone, listed as Glycerol monolaurate), 62.5 micrograms/mL. For the same compound, the MIC in [1] (Staphylococcus aureus, read-out: MIC (Minimum Inhibitory Concentration), S. aureus MRSA, glycerol monolaurate alone) was 62.5 µg/mL; in data set [2], 62.5 µg/mL; in [3] (Enterococcus faecalis, ATCC51299, read-out: MIC (Minimum Inhibitory Concentration)), 125 µg/mL. The “MIC of Glycerol monolaurate in two-component combination” value was 30 μg/mL Glycerol monolaurate in [1] (S. aureus MRSA, listed as Glycerol monolaurate) and approximately 30 µg/mL in data set [1] (S. aureus MRSA, listed as glycerol monolaurate). For the same compound, in data set [1] (MRSA), the “Concentration of the component” value was 15 µg/mL. Further, the “Growth or No Growth” value is given as “+” in data set [1] (final concentration 31.25 micrograms/mL, S. aureus MRSA); 0 in data set [1] (final concentration 62.5 micrograms/mL, S. aureus MRSA); 0 in data set [1] (final concentration 125 micrograms/mL, S. aureus MRSA); 0 in data set [1] (final concentration 250 micrograms/mL, S. aureus MRSA); “+” in data set [2] (final concentration 31.25 micrograms/mL, S. aureus VISA); 0 in data set [2] (final concentration 62.5 micrograms/mL, S. aureus VISA). For the same compound, the “Growth or No Growth” value is given as 0 in data set [2] (final concentration 125 micrograms/mL, S. aureus VISA); 0 in data set [2] (final concentration 250 micrograms/mL, S. aureus VISA); “+” in data set [3] (final concentration 31.25 micrograms/mL, Enterococcus faecalis); “+” in data set [3] (final concentration 62.5 micrograms/mL, Enterococcus faecalis); 0 in [3] (final concentration 125 micrograms/mL, Enterococcus faecalis); 0 in [3] (final concentration 250 micrograms/mL, Enterococcus faecalis). Also, the “% Reduction” value in data set [4] (setting [8]), in data set [5] (setting [8]) and in data set [6] (setting [8]) was 100% throughout. The “Log Reduction” value in [4] (setting [8]) was 6.75; in data set [5] (setting [8]), 7.04; in [6] (setting [8]) it was 7.1. Besides, the “CFU Recovered” value in [4] (setting [8]), in data set [5] (setting [8]) and in data set [6] (setting [8]) was <5 × 10^0 CFU per mL in each case. The “Minimum inhibitory concentration for Staphylococcus” value in the data set on S. aureus was 250 micrograms/mL.
For the compound `C/C(=C\C(=O)OCCCCCCCCC(=O)O)C[C@@H]1OC[C@H](C[C@@H]2O[C@H]2[C@@H](C)[C@H](C)O)[C@@H](O)[C@H]1O` [mupirocin], the “Clinical outcome of prior treatment of MRSA lesions” value with MRSA is “the MRSA was still present in the patient's sinuses; also recorded: unsuccessfully treated”.

These data come from patent US8420627B2, “Nasal, wound and skin formulations and methods for control of antibiotic-resistant staphylococci and other gram-positive bacteria” (priority 2009, dated 2013).
